# Test results reported in patent US20080081021A1, “Manganese-enhanced magnetic resonance imaging of neurons using electrical stimulation” (priority 2006, published 2008).
# Where two headings read alike, the source gives them in different places.
# Assays:
# [1] = tested on: rat spinal cord (gray matter, white matter, cortical spinal tract); conditions: for *T1CST: cortical spinal tract in spinal cord; for *T1CST / T1GM / T1WM: 1 M MnCl2 0.2 μL bilateral intracortical, 9.4 T; for T1GM: gray matter of spinal cord, mean±SD, four rats; for T1WM: white matter of spinal cord
# Protocol: (§1) The experiments were conducted on twelve Sprague-Dawley rats weighing between 300 and 350 g under a protocol approved by the University of Kansas Medical Center Institutional Animal Care and Use Committee. Six rats were studied without electrical stimulation in the cortex and served as the control group. The remaining six rats formed the stimulation group.
# The syringe was mounted on a micropositioner attached to a stereotaxic frame. The tip of the glass pipette was lowered perpendicular to the brain surface at the center of the first burr hole and inserted into the cortex through the exposed dura one millimeter below the pial surface. The syringe was emptied slowly to deliver 0.2 μL of the solution over a period of five minutes. To prevent backflow of solution, the pipette was left in place for another five minutes prior to withdrawal. This procedure was repeated for the contralateral motor area through the second burr hole.
# To eliminate this problem, the burr holes in the skull of the rat from the stimulation group were first carefully drained of fluid. Electrical stimulation was then applied through a 1 mm diameter stainless steel electrode with the titanium screw serving as reference. The electrode was connected to a DS7 Digitimer constant current stimulator (Digitimer Ltd., Hertfordshire, England) and lowered through the first burr hole on the same side as the screw until it touched to dura. A Grass S48 stimulator (Grass Medical Instruments, Quincy, Mass.) generated the stimulus pulse sequence used to externally trigger the constant current stimulator. Trains of biphasic stimuli (each phase 0.2 ms, negative first) were applied at 100 Hz for an “on” period of 5 seconds followed by an “off” period of 5 seconds. […] Once threshold was determined, stimulation was applied at approximately twice the threshold for 90 minutes. If the strength of the evoked movement declined noticeably, frequency and current values were increased to maintain a constant motor response. These procedures were repeated for the opposite cortex through a second burr hole. With these settings, the total stimulation time was 180 minutes, 90 minutes for each side of the cortex. Immediately after stimulation, the electrodes were removed, and the skin was closed tightly with suture. The animal was then left to recover in its cage.
# The animals were anesthetized using spontaneous inhalation of 4% isoflurane for induction, followed by a mixture of 1.5% isoflurane, 30% oxygen, and air delivered through a nose mask. The rat's head was stabilized on a Plexigas holder and positioned into a 6 cm inner diameter volume coil for MRI scanning on a 9.4 T horizontal Varian scanner (Varian Inc., Palo Alto, Calif.). While in the scanner, the physiological condition of the rat was monitored using ECG, respiratory and temperature probes that were connected to an MR-compatible small animal monitoring and gating system (Model 1025, SA Instruments, Inc., Stony Brook, N.Y.). The rat's temperature was kept at about 37° C. by circulating warm air with 40% humidity using a 5 cm diameter plastic tube fitted to the back door of the magnet bore.
# The resulting data set consisted of axial images acquired independently at eight different TR values: 50, 100, 250, 500, 750, 2000, 3500, and 6000 ms with averages=10, 6, 6, 2, 2, 2, 2 and 2, respectively, and TE=12 ms. The other acquisition parameters were image matrix=128×128, field-of-view (FOV)=23×23 mm^2 and slice thickness=4 mm. The acquired data were analyzed quantitatively to produce a parametric T1 map of the spinal cord by following the procedures described previously in Bilgen et al., Ex vivo magnetic resonance imaging of rat spinal cord at 9.4 T, Magn. Reson. Imaging 23:601-605 (2005).
# T1-maps were produced for four rats from each of the stimulated and control groups.
# cortical spinal tract = conditions: 24 hours after injection
# Protocol: as §1
# The syringe was mounted on a micropositioner attached to a stereotaxic frame. The tip of the glass pipette was lowered perpendicular to the brain surface at the center of the first burr hole and inserted into the cortex through the exposed dura one millimeter below the pial surface. […]
# To eliminate this problem, the burr holes in the skull of the rat from the stimulation group were first carefully drained of fluid. […] Once threshold was determined, stimulation was applied at approximately twice the threshold for 90 minutes. […]
# The animals were anesthetized using spontaneous inhalation of 4% isoflurane for induction, followed by a mixture of 1.5% isoflurane, 30% oxygen, and air delivered through a nose mask. […] While in the scanner, the physiological condition of the rat was monitored using ECG, respiratory and temperature probes that were connected to an MR-compatible small animal monitoring and gating system (Model 1025, SA Instruments, Inc., Stony Brook, N.Y.). […]
# [2] = control rats without electrical stimulation
substance,measurement,setting,value
manganese chloride,*T1CST,[1]; [2],1.43 ± 0.09 s
same,*T1CST,[1]; electrically stimulated rats,1.24 ± 0.08 s
same,T1GM,[1]; [2],1.55 ± 0.05 s
same,T1GM,[1]; electrically stimulated rats,1.54 ± 0.06 s
same,T1 in the cortical spinal tract shorter in electrically stimulated rats compared to controls,"[1]; stimulated vs non-stimulated rats, both given MnCl2",about 20%
same,T1WM,[1]; [2],1.53 ± 0.06 s
same,T1WM,[1]; electrically stimulated rats,1.51 ± 0.07 s
same,manganese enhancement of the cortical spinal tract,cortical spinal tract; non-stimulated rat,fades away as the cortical spinal tract approaches the spinal cord
same,labeling of the cortical spinal tract in the spinal cord,cortical spinal tract; with electrical stimulation of the cortex,more robust labeling of the cortical spinal tract in the spinal cord
